Data on 2 compounds can be found in PMC3750730 (Neuroscience letters, 2013).

Structures are written as SMILES.

Data set [1] deals with brain glucose. The note with it: rats treated with fluoxetine; cited from earlier work.
Data set [2] deals with rats. The note with it: rats treated with fluoxetine; cited from earlier work.
In data set [3] the target is class II HDAC enzyme subtypes. Description: In vitro HDAC deacetylase activity assay. The following applies: read-out: IC50 class II HDAC enzyme subtypes; recombinant human HDACs. In kind it is biochemical.
Data set [4] can be described thus: Rat weight during seven days of daily treatment. In kind it is in vivo, rats. The note with it: Cpd-60 22.5 mg/kg, CI-994 5 mg/kg, vs vehicle-treated controls.

For the compound `CNCCC(Oc1ccc(C(F)(F)F)cc1)c1ccccc1` (stereo not shown) [fluoxetine], the brain glucose changes in data set [1] is recorded as 4–14%. Besides, the “behavioral effects in the forced swim test” value in data set [2] is given as “antidepressant behavioral effects”.

With `CC(=O)Nc1ccc(C(=O)Nc2ccccc2N)cc1` [CI-994], the half-maximal inhibitory concentration (IC50) in data set [3] was above 33 µM. Also, in data set [4], the “effect on rat weight over seven days” value was “did not significantly affect rat weight”.

A word on the IC50: it is the concentration that inhibits the measured activity by half.
